Measurements as given in patent publication US9421276B2, “Clickable polyoxetane carrier for drug delivery” (VIRGINIA COMMONWEALTH UNIVERSITY, priority 2012, dated 2016).

Assays:
[1] = tested on: Human glioma U1242/luc-GFP cells; test: Cell toxicity assay (luciferase assay); format: cell-based; settings: 48 h, carriers at concentrations up to 33 μM
Method: Cell toxicity assays. Human glioma U1242/luc-GFP cells stably expressing the reporter luciferase were exposed to various CPT equivalent concentrations of polymer-CPT conjugates or polymer control samples (n=4) in a 96-well microtiter plate for 48 h followed by luciferase assay to assess survival of cells.

[2] = physiological pH, background statement; cited from earlier work

For `CC[C@@]1(O)C(=O)OCc2c1cc1n(c2=O)Cc2cc3ccccc3nc2-1` [CPT, 20(S)-Camptothecin], the cytotoxicity [1] is listed as “dose-dependent toxic” and the “stability of lactone form” value [2] is listed as “rapidly transforms into the carboxylate form”.
